9 compounds from patent US8354429B2, “Inhibitors of human immunodeficiency virus replication” (priority 2007, dated 2013) can be followed below.

The structures appear in SMILES notation.

Type in all cases: cell-based
The subject of assay [1] is HIV-1 2.12 virus with Ala124/Thr125 variant integrase (HXB2 integrase). Description: C8166 HIV-1 luciferase assay (EC50), A124/T125 integrase variant virus. Particulars: Human immunodeficiency virus 1, HXB2, C8166, read-out: EC50 (nM) A124/T125. The source says:
(§1) C8166 cells are derived from a human T-lymphotrophic virus type 1 immortalized but nonexpressing line of cord blood lymphocytes (NIH AIDS reagent 404) and are highly permissive to HIV-1 infection. The pGL3 Basic LTR/TAR plasmid is made by introducing the HIV-1 HxB2 LTR sequence from nucleotide −138 to +80 (Sca1-HindIII) upstream of the luciferase gene in the pGL3 Basic Vector (a promoterless luciferase expression vector from Promega catalogue #E1751) with the gene for blasticidine resistance cloned in. The reporter cells are made by electroporating C8166 cells with pGL3 Basic LTR/TAR and selecting positive clones with blasticidine. Clone C8166-LTRluc #A8-F5-G7 was selected by 3 consecutive rounds of limiting dilution under blasticidine selection. Cultures are maintained in complete media (consisting of: Roswell Park Memorial Institute medium (RPMI) 1640+10% FBS+10^−5 M β-mercaptoethanol+10 μg/mL gentamycin) with 5 μg/mL blasticidine, however, blasticidine selection is removed from the cells before performing the viral replication assay.
(§2) Serial dilutions of HIV-1 inhibitor compounds are prepared in complete media from 10 mM DMSO stock solutions. Eleven serial dilutions of 2.5× are made at 8× desired final concentration in a 1 ml deep well titer plate (96 wells). The 12th well contains complete media with no inhibitor and serves as the positive control. All samples contain the same concentration of DMSO 0.1% DMSO). A 25 μL aliquot of inhibitor is added, to triplicate wells, of a 96 well tissue culture treated clear view black microtiter plate (Corning Costar catalogue #3904). The total volume per well is 200 μL of media containing cells and inhibitor. The last row is reserved for uninfected C8166 LTRluc cells to serve as the background blank control and the first row is media alone.
(§3) C8166 LTRluc cells are counted and placed in a minimal volume of complete RPMI 1640 in a tissue culture flask (ex. 30×10^6 cells in 10 mL media/25 cm^2 flask). Cells are infected with HIV-1 or virus with variant integrase generated as described below at a […] (moi) of 0.005. Cells are incubated for 1.5 h at 37° C. on a rotating rack in a 5% CO2 incubator and re-suspended in complete RPMI to give a final concentration of 25,000-cells/175 μL. 175 μL of cell mix is added to wells of a 96 well microtiter plate containing 25 μL 8× inhibitors. 25,000 uninfected C8166-LTRluc cells/well in 200 μL complete RPMI are added to the last row for background control. Cells are incubated at 37° C. in 5% CO2 incubator for 3 days.
(§4) 50 μL Steady Glo (luciferase substrate T1/2=5 hours Promega catalogue #E2520) is added to each well of the 96 well plate. The relative light units (RLU) of luciferase is determined using the LUMIstar Galaxy luminometer (BMG LabTechnologies). Plates are read from the bottom for 2 seconds per well with a gain of 240.
(§5) The level of inhibition (% inhibition) of each well containing inhibitor is calculated as follows: […]
(§6) The calculated % inhibition values are used to determine EC50, slope factor (n) and maximum inhibition (Imax) by the non-linear regression routine NLIN procedure of SAS using the following equation: […]
(§7) The 2.12 virus with NL4.3 strain of HIV-1 integrase (SEQ ID NO: 1) is used for the Thr124/Thr125 variant integrase residues and HXB2 integrase is introduced into the 2.12 virus for the Ala124/Thr125 variant integrase residues. The remaining variants viruses are generated by site directed mutagenesis of NL4.3 integrase to introduce the Ala124/Ala125, Thr124/Ala125, Asn124/Thr125, or Asn124/Ala125 variants in the 2.12 virus. Molecular biology and generation of virus are performed in a similar manner to Doyon et al. J. Virol. 70(6):3763-9 (1996). Briefly, site directed mutagenesis is used to introduce silent mutations in the integrase gene of the 2.12 virus. […]

Assay [2] relates to HIV-1 2.12 virus with Thr124/Ala125 variant integrase. Description: C8166 HIV-1 luciferase assay (EC50), T124/A125 integrase variant virus. Particulars: Human immunodeficiency virus 1, C8166, read-out: EC50 (nM) T124/A125.
Text: as §1, §2, §3, §4, §5, §6, §7

Assay [3] has as its system HIV-1 2.12 virus with Thr124/Thr125 variant integrase (NL4.3 integrase). Description: C8166 HIV-1 luciferase assay (EC50), T124/T125 integrase variant virus. The settings on record: Human immunodeficiency virus 1, C8166, read-out: EC50 (nM) T124/T125.
Text: as §1, §2, §3, §4, §5, §6, §7

The subject of assay [4] is HIV-1 2.12 virus with Ala124/Ala125 variant integrase. The assay is described as follows: C8166 HIV-1 luciferase assay (EC50), A124/A125 integrase variant virus. Particulars: Human immunodeficiency virus 1, C8166, read-out: EC50 (nM) A124/A125.
Text: as §1, §2, §3, §4, §5, §6, §7

On to `Cc1nc2ccccc2c(OC(C)C)c1C(C(=O)O)c1ccc2c3c(ccnc13)CCO2` (stereo not drawn) [Compound 2001], for which the EC50 was determined as 71 nM in assay [1], 120 nM in assay [2], 110 nM in assay [3] and 67 nM in assay [4].
On to `Cc1ccc(-c2c([C@H](OC(C)(C)C)C(=O)O)c(C)nc3ccccc23)cc1C` [Compound 1008], for which the EC50 in assay [1] is 11 nM; in assay [2] it was 49 nM; in assay [3], 59 nM; in assay [4], 55 nM.
In the same order, the values of `Cc1nc2ccccc2c(-c2ccc(Cl)cc2F)c1[C@H](OC(C)(C)C)C(=O)O` [Compound 1010] are 12 nM, 76 nM, 41 nM and 49 nM.
For `Cc1nc2ccccc2c(-c2ccc3c(c2)C(C)CCO3)c1[C@H](OC(C)(C)C)C(=O)O` (stereo partly drawn) [Compound 1052], the EC50 in assay [1] was determined as 28 nM; in assay [2], 59 nM; in assay [3], 120 nM; in assay [4] it was 64 nM.
Taken in the same sequence, the figures for `Cc1nc2ccccc2c(-c2ccc3c(c2)CCC3)c1[C@H](OC(C)(C)C)C(=O)O` [Compound 1023] were 12 nM, 31 nM, 29 nM and 37 nM.
In the same order, the values of `Cc1nc2ccccc2c(-c2ccc3c(c2)CCO3)c1[C@H](OC(C)(C)C)C(=O)O` [Compound 1014] are 19 nM, 76 nM, 87 nM and 68 nM.
Taken in the same sequence, the figures for `Cc1nc2ccccc2c(-c2ccc(CF)cc2F)c1[C@H](OC(C)(C)C)C(=O)O` [Compound 1018] were 35 nM, 93 nM, 55 nM and 110 nM.
For `CCC(C)(C)Oc1c(C(C(=O)O)c2ccc3c4c(ccnc24)CCO3)c(C)nc2ccccc12` (stereo not drawn) [Compound 2002], the EC50 was found to be 9.9 nM in assay [1], 24 nM in assay [2], 19 nM in assay [3] and 13 nM in assay [4].
In the case of `Cc1nc2ccccc2c(-c2ccc3ncsc3c2)c1[C@H](OC(C)(C)C)C(=O)O` [Compound 1136], the EC50 in assay [1] is 91 nM; in assay [2], 140 nM; in assay [3] it was 200 nM; in assay [4] it was 170 nM.
